In patent US20240368139A1, “NOVEL MODULATORS OF EHMT1 AND EHMT2 AND THERAPEUTIC USE THEREOF” (Tango Therapeutics, Inc., priority 2021, published 2024):

Columns and labels:
human EHMT1 982-1266 = molecular target: T1, human EHMT1 982-1266 (Homo sapiens, UniProt Q9H9B1); assay: EHMT1 enzyme assay on histone peptide substrate (3H-SAM SPA); conditions: EHMT1 IC50, recombinant human EHMT1 982-1266, histone peptide substrate
T1 sequence (Q9H9B1 982-1266): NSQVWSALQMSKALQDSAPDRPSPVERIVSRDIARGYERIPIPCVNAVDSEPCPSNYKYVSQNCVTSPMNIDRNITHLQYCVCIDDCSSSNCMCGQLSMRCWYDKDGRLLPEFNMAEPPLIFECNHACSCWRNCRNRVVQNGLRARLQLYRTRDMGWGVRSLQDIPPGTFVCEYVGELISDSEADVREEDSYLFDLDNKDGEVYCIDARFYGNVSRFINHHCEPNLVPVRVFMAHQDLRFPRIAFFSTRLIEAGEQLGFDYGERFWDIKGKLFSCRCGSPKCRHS

H3K9me2 in HCT116 cells = assay: HCT116 H3K9me2 in-cell western assay; assay type: cell-based; conditions: Homo sapiens, HCT-116, 72 h, HCT116 cells, 72 hours incubation; read-out: H3K9me2 ICW IC50
Procedure, shortened: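 H3K9me2 signal (800 nm) was normalized to DRAQ5 DNA stain (700 nm) in an in-cell western. Cells were fixed with paraformaldehyde and probed overnight at 4° C with primary antibody.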

hERG potassium channels = hERG potassium channels (Homo sapiens, UniProt Q12809); assay: In vitro hERG assay (SyncroPatch whole-cell recording); conditions: hERG IC50, SyncroPatch, room temperature
Method: CHO cells stably expressing hERG potassium channels from Sophion Biosciences were used for this test. The cells were cultured in a humidified and air-controlled (5% CO2) incubator at 37° C.
The CHO hERG Culture Medium consisted of 500 mL Ham's F12 (Invitrogen), 50 mL FBS (HyClone), 1 mL G418/Geneticin (Invitrogen, and 1 mL Hygromycin B (Invitrogen)
The CHO cells which were at least two days after plating and more than 75% confluent would be used for experiments. Before testing, cells were harvested using TrypLE and resuspended in the physiological solution at the room temperature.
For the electrophysiological recordings the following solutions were used (Table 5). The physiological solution and external solution were prepared at least one month. The intracellular solution was prepared in batches aliquoted, and stored at 4° C. until used.
Test compounds were dissolved in 100% DMSO to obtain stock solutions for different test concentrations. Then the stock solutions were further diluted into external solution to achieve final concentrations for testing. Visual check for precipitation was conducted before testing. Final DMSO concentration in external solution was not more than 0.30% for the test compounds.
Voltage command protocol: From this holding potential of −80 mV, the voltage was first stepped to −50 mV for 80 ms for leak subtraction, and then stepped to +20 mV for 4800 ms to open hERG channels. After that, the voltage was stepped back down to −50 mV for 5000 ms, causing a “rebound” or tail current, which was measured and collected for data analysis. Finally, the voltage was stepped back to the holding potential (−80 mV, 1000 ms). This voltage command protocol was repeated every 20000 msec. This command protocol was performed continuously during the test (vehicle control and test compound).
hERG SyncroPatch assay was conducted at room temperature. The Setup, Prime Chip, Catch and Seal Cells, Amplifier Settings, Voltage and Application Protocols were established with Biomek Software (Nanion). One addition of 40 μL of the vehicle was applied, followed by 300s for a baseline period. Then the doses of the compounds were added with 40 μL. The exposure of test compound at each concentration was no less than 300s. […] Five concentrations (0.30 μM, 1.00 μM, 3.00 μM, 10.00 μM and 30.00 μM) were tested for each compound. Minimum 2 replicates per concentration were obtained.
Within each well recording, percent of control values were calculated for each test compound concentration current response based on peak current in presence of reference control (current response/peak current)×100%. The Dose-Response curves were fit to the standard Hill equation as shown below:
Where X is the logarithm of concentration, Ipost cpd/Ipre cpa is the normalized peak current amplitude, Top is 1 and Bottom is equal to 0.
Curve-fitting and IC50 calculations were performed by GraphPad Prism 5.0.

human EHMT2 913-1193 = molecular target: T2, human EHMT2 913-1193 (Homo sapiens, UniProt Q96KQ7); assay: EHMT2 enzyme assay on histone peptide substrate (3H-SAM SPA); conditions: EHMT2 IC50, recombinant human EHMT2 913-1193, histone peptide substrate
T2 sequence (Q96KQ7 913-1193): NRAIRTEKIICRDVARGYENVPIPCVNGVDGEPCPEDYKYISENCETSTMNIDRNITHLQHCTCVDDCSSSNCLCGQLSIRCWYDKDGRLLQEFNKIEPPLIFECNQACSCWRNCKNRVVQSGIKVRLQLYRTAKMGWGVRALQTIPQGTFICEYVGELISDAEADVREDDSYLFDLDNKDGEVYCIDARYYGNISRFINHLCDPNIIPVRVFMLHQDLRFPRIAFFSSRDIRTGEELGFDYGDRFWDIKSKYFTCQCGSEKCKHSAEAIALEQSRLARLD

Chain of hERG potassium channels (Q12809 whole entry): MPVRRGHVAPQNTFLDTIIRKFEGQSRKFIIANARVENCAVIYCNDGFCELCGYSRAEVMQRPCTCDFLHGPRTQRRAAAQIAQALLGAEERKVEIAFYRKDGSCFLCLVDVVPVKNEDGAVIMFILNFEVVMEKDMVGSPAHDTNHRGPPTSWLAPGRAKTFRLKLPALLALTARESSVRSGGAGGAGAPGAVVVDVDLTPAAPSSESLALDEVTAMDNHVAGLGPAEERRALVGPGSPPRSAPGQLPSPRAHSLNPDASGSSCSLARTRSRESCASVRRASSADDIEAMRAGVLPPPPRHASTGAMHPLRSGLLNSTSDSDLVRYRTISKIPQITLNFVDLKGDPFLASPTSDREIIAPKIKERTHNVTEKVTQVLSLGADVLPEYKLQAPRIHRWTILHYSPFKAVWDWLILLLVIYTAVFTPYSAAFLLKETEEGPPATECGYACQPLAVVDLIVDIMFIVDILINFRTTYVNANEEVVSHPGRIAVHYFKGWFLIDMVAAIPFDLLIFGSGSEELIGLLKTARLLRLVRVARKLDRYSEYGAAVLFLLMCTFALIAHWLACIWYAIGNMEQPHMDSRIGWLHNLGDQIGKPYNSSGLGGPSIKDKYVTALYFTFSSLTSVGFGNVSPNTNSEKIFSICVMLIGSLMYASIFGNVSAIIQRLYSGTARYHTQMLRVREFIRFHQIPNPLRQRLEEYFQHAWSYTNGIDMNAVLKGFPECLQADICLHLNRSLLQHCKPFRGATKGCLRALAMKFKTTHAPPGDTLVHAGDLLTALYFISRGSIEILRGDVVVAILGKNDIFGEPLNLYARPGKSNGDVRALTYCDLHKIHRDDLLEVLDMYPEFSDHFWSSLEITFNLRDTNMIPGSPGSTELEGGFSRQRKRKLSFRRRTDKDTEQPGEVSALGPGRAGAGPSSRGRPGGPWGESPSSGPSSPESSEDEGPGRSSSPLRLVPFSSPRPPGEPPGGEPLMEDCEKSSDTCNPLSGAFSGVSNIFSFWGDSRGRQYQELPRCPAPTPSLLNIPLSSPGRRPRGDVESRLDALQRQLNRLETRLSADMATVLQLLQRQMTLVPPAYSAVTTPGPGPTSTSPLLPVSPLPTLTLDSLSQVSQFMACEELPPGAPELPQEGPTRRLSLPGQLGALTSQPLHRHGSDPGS

Row | SMILES | IC50 (human EHMT1 982-1266) | IC50 (H3K9me2 in HCT116 cells) | IC50 (hERG potassium channels) | IC50 (human EHMT2 913-1193)
1 | CNc1cc(C)nc(Nc2cc3c(c([C@H]4C[C@H]5CNC[C@H]5C4)c2)OCC3)n1 [Compound 157, N2-[7-(1,2,3,3a,4,5,6,6a-octahydrocyclopenta[c]pyrrol-5-yl)-2,3-dihydrobenzofuran-5-yl]-N4,6-dimethyl-pyrimidine-2,4-diamine] | 100 to 500 nM | 100 to 500 nM | > 10000 nM | 100 to 500 nM
2 | CNc1cc(C)nc(Nc2cc3c(c(C4=CCNCCC4)c2Cl)OCO3)n1 [Compound 160, N2-[6-chloro-7-(2,3,4,7-tetrahydro-1H-azepin-5-yl)-1,3-benzodioxol-5-yl]-N4,6-dimethyl-pyrimidine-2,4-diamine] | < 100 nM | < 100 nM | 5000 to 10000 nM | < 100 nM
3 | CNc1cc(C)nc(Nc2cc3c(c(C4=CCNCCC4)c2Cl)OCCO3)n1 [Compound 166, N2-[6-chloro-5-(2,3,4,7-tetrahydro-1H-azepin-5-yl)-2,3-dihydro-1,4-benzodioxin-7-yl]-N4,6-dimethyl-pyrimidine-2,4-diamine] | < 100 nM | < 100 nM | < 2000 nM | < 100 nM
4 | CNc1cc(C)nc(Nc2cc3c(c(C4=CCNCCC4)c2F)OCC32CC2)n1 [Compound 172] | < 100 nM | < 100 nM | 2000 to 5000 nM | < 100 nM
5 | CNc1cc(C)nc(Nc2cc3c(c(C4=CCNCCC4)c2Cl)OCCC3)n1 [Compound 175] | < 100 nM | < 100 nM | 5000 to 10000 nM | < 100 nM
6 | CNc1cc(C)nc(Nc2cc3c(c(C4=CCN(C)CCC4)c2Cl)OCCC3)n1 [Compound 176] | < 100 nM | < 100 nM | 2000 to 5000 nM | < 100 nM
7 | CNc1cc(C)nc(Nc2cc3c(c(C4=CCNCC(O)C4)c2F)OCC3)n1 (centres unmarked) [Compound 179, 5-[6-fluoro-5-[[4-methyl-6-(methylamino)pyrimidin-2-yl]amino]-2,3-dihydrobenzofuran-7-yl]-2,3,4,7-tetrahydro-1H-azepin-3-ol] | < 100 nM | < 100 nM | > 10000 nM | < 100 nM
8 | CNc1cc(C)nc(Nc2cc3c(c(C4=CCN(C)CC(O)C4)c2F)OCC3)n1 (centres unmarked) [Compound 180] | < 100 nM | < 100 nM | > 10000 nM | < 100 nM
9 | CNc1cc(C)nc(Nc2c(F)c3c(c(C4=CCNCCC4)c2F)OCC3)n1 [Compound 187] | < 100 nM | < 100 nM | > 10000 nM | 100 to 500 nM
10 | CNc1cc(C)nc(Nc2cc3c(c(C4=CCNCCC4)c2C)OCC3)n1 [Compound 188, N4,6-dimethyl-N2-[6-methyl-7-(2,3,4,7-tetrahydro-1H-azepin-5-yl)-2,3-dihydrobenzofuran-5-yl]pyrimidine-2,4-diamine] | < 100 nM | < 100 nM | > 10000 nM | < 100 nM
11 | CNc1cc(C)nc(Nc2cc3c(c(C4=CCNCCC4)c2Cl)OCC3)n1 [Compound 189, N2-[6-chloro-7-(2,3,4,7-tetrahydro-1H-azepin-5-yl)-2,3-dihydrobenzofuran-5-yl]-N4,6-dimethyl-pyrimidine-2,4-diamine] | < 100 nM | < 100 nM | > 10000 nM | < 100 nM
12 | CNc1cc(C)nc(Nc2cc3c(c(C4=CCN(C)CCC4)c2F)OCCC3)n1 [Compound 190] | < 100 nM | < 100 nM | 5000 to 10000 nM | < 100 nM
13 | CNc1cc(C)nc(Nc2cc3c(c(C4=CCNCCC4)c2F)OCCO3)n1 [Compound 191] | < 100 nM | < 100 nM | 2000 to 5000 nM | < 100 nM
14 | CNc1cc(C)nc(Nc2cc3c(c(C4=CCNCCC4)c2F)OCCC3)n1 [Compound 193, N2-[7-fluoro-8-(2,3,4,7-tetrahydro-1H-azepin-5-yl)chroman-6-yl]-N4,6-dimethyl-pyrimidine-2,4-diamine] | < 100 nM | < 100 nM | 5000 to 10000 nM | < 100 nM
15 | CCN1CC=C(c2c(F)c(Nc3nc(C)cc(NC)n3)cc3c2OCC3)CCC1 [Compound 201] | < 100 nM | < 100 nM | 5000 to 10000 nM | < 100 nM
16 | COCCNc1cc(C)nc(Nc2cc3c(c(C4=CCNCCC4)c2F)OCC3)n1 [Compound 289, N2-[6-fluoro-7-(2,3,4,7-tetrahydro-1H-azepin-5-yl)-2,3-dihydrobenzofuran-5-yl]-N4-(2-methoxyethyl)-6-methyl-pyrimidine-2,4-diamine] | < 100 nM | < 100 nM | > 10000 nM | < 100 nM
17 | COCCNc1cc(C)nc(Nc2cc3c(c(C4=CCN(C)CCC4)c2F)OCC3)n1 [Compound 290] | < 100 nM | < 100 nM | > 10000 nM | 100 to 500 nM
18 | Cc1cc(NCC(F)(F)F)nc(Nc2cc3c(c(C4=CCNCCC4)c2)OCC3)n1 [Compound 322] | < 100 nM | 100 to 500 nM | 2000 to 5000 nM | 100 to 500 nM
19 | CNc1cc(C(C)C)nc(Nc2cc3c(c(C4=CCN(C)CCC4)c2)OCC3)n1 [Compound 323] | 100 to 500 nM | 100 to 500 nM | 2000 to 5000 nM | 100 to 500 nM
20 | COCCNc1cc(C)nc(Nc2cc3c(c(C4=CCN(C)CCC4)c2)OCC3)n1 [Compound 324] | 100 to 500 nM | 100 to 500 nM | 5000 to 10000 nM | 100 to 500 nM
21 | Cc1cc(NC2CCC2)nc(Nc2cc3c(c(C4=CCNCCC4)c2)OCC3)n1 [Compound 325] | < 100 nM | 100 to 500 nM | 2000 to 5000 nM | 100 to 500 nM
22 | CNc1cc(C(C)C)nc(Nc2cc3c(c(C4=CCNCCC4)c2)OCC3)n1 [Compound 326] | < 100 nM | < 100 nM | 2000 to 5000 nM | < 100 nM
23 | COCCNc1cc(C)nc(Nc2cc3c(c(C4=CCNCCC4)c2)OCC3)n1 [Compound 327] | < 100 nM | < 100 nM | > 10000 nM | < 100 nM
24 | CNc1cc(C)nc(Nc2cc3c(c(C4=CCNCCC4)c2F)OCC3)c1 [Compound 328] | < 100 nM | < 100 nM | > 10000 nM | < 100 nM
25 | CNc1cc(C)nc(Nc2cc3c(c(C4C[C@@H]5CN(C)C[C@@H]5C4)c2)OCCO3)n1 (some centres unmarked) [Compound 329] | 100 to 500 nM | 100 to 500 nM | > 10000 nM | 500 to 2000 nM
26 | CNc1ccnc(Nc2cc3c(c(C4=CCNCCC4)c2)OCC3)n1 [Compound 330] | < 100 nM | < 100 nM | > 10000 nM | < 100 nM
27 | CNc1ccnc(Nc2cc3c(c(C4=CCN(C)CCC4)c2)OCC3)n1 [Compound 331] | < 100 nM | < 100 nM | > 10000 nM | 100 to 500 nM
28 | CNc1cc(C)nc(Nc2cc3c(c(C4=CCNCCC4)c2)CCO3)n1 [Compound 332] | 100 to 500 nM | 100 to 500 nM | > 10000 nM | 100 to 500 nM
29 | CNc1cc(C)nc(Nc2cc3c(c(C4C[C@H]5CNC[C@H]5C4)c2)OCCO3)n1 (some centres unmarked) [Compound 334] | 100 to 500 nM | 100 to 500 nM | > 10000 nM | 500 to 2000 nM
